# Read-outs that look alike come from different tables or passages of the source.
# Tests used:
# [1] = BALB/c; for AUC8h: single 150 mg/kg oral dose of PZA; for Cmax / AUC168h / Tmax / t1/2: single 25 mg/kg oral dose of BDQ
# M. tuberculosis Erdman [2] = type: in vivo, Mycobacterium tuberculosis; settings: C3HeB/FeJ, P < 0.01
# in vivo [3] = settings: C3HeB/FeJ, mouse, po, 150 mg/kg; for Cmax / half-life / Tmax: single 150 mg/kg oral dose of PZA; for half-life: t1/2, C3HeB/FeJ
# in vivo [4] = settings: BALB/c and C3HeB/FeJ, mouse, 150 mg/kg
# in vivo [5] = settings: BALB/c, mouse, po, 150 mg/kg; for Cmax / half-life / Tmax: single 150 mg/kg oral dose of PZA; for half-life: t1/2, BALB/c
# THP-1 cells = settings: 30 min exposure, 1 mM PZA, 0.4 mM POA
# [6] = C3HeB/FeJ; for AUC8h: single 150 mg/kg oral dose of PZA
# [7] = test system: Mycobacterium tuberculosis; settings: cited from earlier work
# M. tuberculosis Erdman [8] = type: in vivo, Mycobacterium tuberculosis; settings: BALB/c, P < 0.01
# [9] = cited from earlier work
# [10] = lung; single dose of 25 mg/kg BDQ; BALB/c and C3HeB/FeJ
# [11] = PZA 150 mg/kg, first 3 weeks of treatment
# [12] = PZA 300 mg/kg vs 150 mg/kg, first 3 weeks
# [13] = lesion (cellular non-necrotizing, type III)
# [14] = lesion (type I), single 25 mg/kg oral dose of BDQ
# [15] = plasma, single 25 mg/kg oral dose of BDQ
# [16] = uninvolved lung, single 25 mg/kg oral dose of BDQ
# [17] = whole lung, single 25 mg/kg oral dose of BDQ
smiles,measurement,setting,value
"NC(=O)c1cnccn1 [PZA, pyrazinamide]",AUC8h,[1]; lesion (type III),459.4 µg·h/g
same,AUC8h,[1]; uninvolved lung,262.8 µg·h/g
same,AUC8h,[1]; whole lung,298.6 µg·h/g
same,change in pulmonary CFU,M. tuberculosis Erdman [2]; [11],significant decrease in pulmonary CFU
same,change in pulmonary CFU,M. tuberculosis Erdman [2]; [12],larger decrease in CFU
same,AUC(0-t),in vivo [3],329 µg·h/mL
same,Kp,in vivo [3]; AUCLes/AUCplasma,1.07
same,Kp,in vivo [3]; AUCUL/AUCplasma,0.72
same,Kp,in vivo [3]; AUCWL/AUCplasma,0.93
same,Cmax,"in vivo [3]; lesion (caseous necrotic granuloma, type I)",94700 ng/g
same,Cmax,in vivo [3]; plasma,87.4 µg/mL
same,Cmax,in vivo [3]; uninvolved lung,66200 ng/g
same,Cmax,in vivo [3]; whole lung,76500 ng/g
same,half-life,in vivo [3]; lesion (type I),2.88 h
same,half-life,"in vivo [3]; plasma, 2.5–8 h terminal",2.6 h
same,half-life,in vivo [3]; uninvolved lung,3.01 h
same,half-life,in vivo [3]; whole lung,2.82 h
same,Tmax,in vivo [3]; lesion (type I),1 h
same,Tmax,in vivo [3]; plasma,0.75 h
same,Tmax,in vivo [3]; uninvolved lung,1 h
same,Tmax,in vivo [3]; whole lung,1 h
same,Tmax,in vivo [4],0.5 to 1 h
same,AUC(0-t),in vivo [5],346 µg·h/mL
same,Kp,in vivo [5]; AUCLes/AUCplasma,1.33
same,Kp,in vivo [5]; AUCUL/AUCplasma,0.76
same,Kp,in vivo [5]; AUCWL/AUCplasma,0.86
same,Cmax,in vivo [5]; [13],146000 ng/g
same,Cmax,in vivo [5]; plasma,161 µg/mL
same,Cmax,in vivo [5]; uninvolved lung,93600 ng/g
same,Cmax,in vivo [5]; whole lung,123000 ng/g
same,half-life,in vivo [5]; lesion (type III),0.96 h
same,half-life,"in vivo [5]; plasma, 2.5–8 h terminal",1.05 h
same,half-life,in vivo [5]; uninvolved lung,0.75 h
same,half-life,in vivo [5]; whole lung,1.02 h
same,Tmax,in vivo [5]; lesion (type III),0.5 h
same,Tmax,in vivo [5]; plasma,0.5 h
same,Tmax,in vivo [5]; uninvolved lung,0.5 h
same,Tmax,in vivo [5]; whole lung,0.5 h
same,accumulation within THP-1 cells,THP-1 cells,accumulated to a very low degree
same,AUC8h,[6]; lesion (type I),351.8 µg·h/g
same,AUC8h,[6]; uninvolved lung,237.9 µg·h/g
same,AUC8h,[6]; whole lung,306.3 µg·h/g
same,MIC,"[7]; pH 7.0, standard laboratory culture conditions",> 1000 mg/mL
same,change in pulmonary CFU,M. tuberculosis Erdman [8]; [11],significant decrease in pulmonary CFU
same,change in pulmonary CFU,M. tuberculosis Erdman [8]; [12],larger decrease in CFU
"CNCCC(O)(c1cccc2ccccc12)C(c1ccccc1)c1cc2cc(Br)ccc2nc1OC (stereo not shown) [M2, N-desmethyl-BDQ]",Cmax,[1]; [13],82.7 µg/g
same,AUC168h,[1]; lesion (type III),7619 µg·h/g
same,Tmax,[1]; lesion (type III),24 h
same,t1/2,[1]; lesion (type III),90.7 h
same,AUC168h,[1]; plasma,57.3 µg·h/mL
same,Cmax,[1]; plasma,0.76 µg/mL
same,Tmax,[1]; plasma,8 h
same,t1/2,"[1]; plasma, 72–168 h terminal",59.8 h
same,AUC168h,[1]; uninvolved lung,8825 µg·h/g
same,Cmax,[1]; uninvolved lung,111.8 µg/g
same,Tmax,[1]; uninvolved lung,24 h
same,t1/2,[1]; uninvolved lung,69.7 h
same,AUC168h,[1]; whole lung,7207 µg·h/g
same,Cmax,[1]; whole lung,69.5 µg/g
same,Tmax,[1]; whole lung,24 h
same,t1/2,[1]; whole lung,90.6 h
same,protein bound,[9],more than 99%
same,tmax by MALDI-MSI,[10],24 h
same,concentration in dissected caseum of type I granulomas (LC/MS/MS),"[6]; 8 h following a single 25 mg/kg dose of BDQ, preliminary",587.5 ng/g
same,Cmax,"[6]; lesion (caseous necrotic granuloma, type I), single 25 mg/kg oral dose of BDQ",26.8 µg/g
same,AUC168h,[6]; [14],2848 µg·h/g
same,Tmax,[6]; [14],24 h
same,t1/2,[6]; [14],98.6 h
same,AUC168h,[6]; [15],69.3 µg·h/mL
same,Cmax,[6]; [15],0.70 µg/mL
same,Tmax,[6]; [15],24 h
same,plasma exposure (AUC168h) as printed in the discussion,[6]; [15],69.3 µg·h/g
same,t1/2,"[6]; plasma, single 25 mg/kg oral dose of BDQ, 72–168 h terminal",55.9 h
same,AUC168h,[6]; [16],4895 µg·h/g
same,Cmax,[6]; [16],46.9 µg/g
same,Tmax,[6]; [16],24 h
same,t1/2,[6]; [16],89.4 h
same,AUC168h,[6]; [17],5254 µg·h/g
same,Cmax,[6]; [17],45.4 µg/g
same,Tmax,[6]; [17],24 h
same,t1/2,[6]; [17],134.7 h
same,MIC relative to BDQ,[7],approximately five times higher than that of BDQ

# From paper PMC4874602 (ACS Infectious Diseases, 2016)
